Results taken from article PMC6271231 (Molecules, 2014).
Entries after “also recorded” stand apart in the source; their conditions may differ. Where two headings read alike, the source gives them in different places.

Experiments:
[1] = target: NA of A/Sydney/5/97 (H3N2) (Influenza A virus, UniProt Q9DIC9); assay: Neuraminidase inhibition assay (fluorimetric, MUNANA); assay type: biochemical, influenza A virus A/Sydney/5/97 (H3N2)
[2] = system: IL-6 production in H1N1-infected A549 cells; assay type: cell-based, human
[3] = system: MCP-1 production in H1N1-infected A549 cells; assay type: cell-based, human
[4] = NA from A/Sydney/5/97 (H3N2), 37 °C, 40 min, pH 6.5, read-out: IC50, inhibition of NA, A/Sydney/5/97(H3N2) (converted)

SMILES | IC50 [1, 4] [µM] | inhibition of IL-6 expression induced by influenza H1N1 virus (in words) [2] | inhibition of MCP-1 expression induced by influenza H1N1 virus (in words) [3] | IC50 [1] [µM]
O=C(Oc1cc(O)c2c(c1)OC(c1cc(O)c(O)c(O)c1)C(O)C2)c1cc(O)c(O)c(O)c1 (single isomer, unassigned; (+)) [Compound 3, (+)-3,5,3',4',5'-penta-hydroxyflavan-7-gallate] | > 87.3 | weakest inhibition; also recorded: worst inhibition | worst inhibition | –
CC1(C)O[C@@H]2Cc3c(O)cc(OC(=O)c4cc(O)c(O)c(O)c4)cc3O[C@@H]2c2cc(O)c(O)c(O)c21 [Compound 1, (2R,3R)-7-O-galloylplumbocatechin A] | 64.7 | – | inhibit MCP-1 expression best at the lowest concentrated dilution of 3 μg/mL; also recorded: best results | –
O=C(Oc1cc(O)c2c(c1)O[C@H](c1cc(O)c(O)c(O)c1)CC2)c1cc(O)c(O)c(O)c1 [Compound 2, (−)-5,3',4',5'-tetrahydroxyflavan-7-gallate] | > 90.4 | best inhibitory effect | inhibit MCP-1 expression best at the lowest concentrated dilution of 3 μg/mL | –
O=C(Oc1cc(O)c2c(c1)O[C@H](c1cc(O)c(OC(=O)c3cc(O)c(O)c(O)c3)c(O)c1)CC2)c1cc(O)c(O)c(O)c1 [Compound 4, (−)-7,4'-di-O-galloyltricetiflavan] | > 67.3 | – | – | –
CC(=O)N[C@H]1[C@H]([C@H](O)[C@H](O)CO)OC(C(=O)O)=C[C@@H]1N=C(N)N [zanamivir, reference compound] | – | – | – | 0.000632
